Source: EP3593819A1, “COMPOSITIONS FOR THERAPEUTIC USES CONTAINING 5-HTP AND CARBIDOPA” (Medday Pharmaceuticals, priority 2018, dated 2020)
≈ marks a conversion by molar mass, not a printed value. Like-named read-outs stand apart in the source and are kept apart here.

Experiments:
[1] = UV-measured solubility of 5-HTP and carbidopa; type: physicochemical
Description: The individual solubility of 5-HTP and carbidopa was assessed and compared to the data in the literature.
Table 2. Solubility results

[2] = Second wave of solubility testing with acidified vehicles and combinations; type: physicochemical; settings: 40% (w/v) HP-3-cyclodextrin + 38.4 mg/mL citric acid, pH2.0, compared to similar solution containing only 20% (w/v) HP-3-cyclodextrin
Description: Based on the outcome of these solubility tests, a second wave of solubility testing was performed, with acidified vehicles and combinations thereof.
The highest solubility was obtained in 40% (w/v) HP-3-cyclodextrin + 38.4 mg/mL citric acid, pH2.0, for both APIs (Active Pharmaceutical Ingredients). The marginal increase in solubility in this vehicle, compared to similar solution containing only 20% (w/v) HP-3-cyclodextrin is only -20% for 5-HTP and -40% for carbidopa. Therefore, and since dosing of HP-3-cyclodextrin is limited to about 8 - 16 g/day (for max. 14 days, short-term Phase I studies), it was foreseen to use the vehicle containing only 20% HP-b-cyclodextrin as the first choice for dosing safety reasons, i.e.: • for a 600 mg 5-HTP/60 mg carbidopa dose with a 30 mg/mL 5-HTP/3 mg/mL carbidopa solution in solvent A (40% HP-β-CD), 20 mL solution is required, corresponding with an intake of 8 g HP-β-CD, and; • for a 600 mg 5-HTP/60 mg carbidopa dose with a 30 mg/mL 5-HTP/3 mg/mL carbidopa solution in solvent B (20% HP-β-CD), 20 mL solution is required, corresponding with an intake of only 4 g HP-β-CD.

[3] = Screening stress test study on separate reference solutions and a mix solution; type: physicochemical
Description: Stress studies were performed on the separated reference solutions and a mix solution under heat (60°C for 24 h), and under acidic, basic, or oxidative (H2O2) conditions, and ICH light (700 W/m^2 for 8 h) conditions.

[4] = cited from earlier work
[5] = 0.1N HCl, simulated gastric fluid, 0.1N HCI
[6] = 5% Soluplus in water, aqueous with cosolvent or surfactant or cyclodextrin
[7] = 10% w/v M-β-cyclodextrin in water (Kleptose crysmeb), aqueous with cosolvent or surfactant or cyclodextrin
[8] = 20% w/v HP-β-cyclodextrin in water (Kleptose), aqueous with cosolvent or surfactant or cyclodextrin, 20% w/v HP-β-cydodextrin in water (Kleptose)
[9] = Ethanol, organic solvent or mixture
[10] = Kolliphor RH40 (5% in water), aqueous with cosolvent or surfactant or cyclodextrin
[11] = PEG400, organic solvent or mixture
[12] = Polysorbate 20 (5% in water), aqueous with cosolvent or surfactant or cyclodextrin
[13] = Propylene glycol, organic solvent or mixture
[14] = Sepiclear (5% in water), aqueous with cosolvent or surfactant or cyclodextrin
[15] = Solutol HS15 (5% in water), aqueous with cosolvent or surfactant or cyclodextrin
[16] = Transcutol HP, organic solvent or mixture
[17] = oil or lipid, Labrafac lipophile, accurate measurement not possible due to diverging spectrum
[18] = oil or lipid, Sunflower oil, accurate measurement not possible due to diverging spectrum
[19] = pH 5, aqueous buffer, Phosphate buffer, pH5
[20] = pH 6.8, aqueous buffer, Phosphate buffer, pH6.8
[21] = pH 9, aqueous buffer, Phosphate buffer, pH9
[22] = separate solution, ICH light (700 W/m^2 for 8 h)
[23] = separate solution, acidic conditions, immediate, no further degradation after 24 h
[24] = separate solution, basic medium, after 24 h
[25] = separate solution, heat (60°C for 24 h)
[26] = separate solution, oxidative (H2O2) stress, T0 and T24h

SMILES	solubility [1, 5] [µg/mL]	solubility [1, 6] [µg/mL]	solubility [1, 7] [µg/mL]	solubility [1, 8] [µg/mL]	solubility [1, 9] [µg/mL]	solubility [1, 10] [µg/mL]	solubility ([1]; Labrasol ALF, oil or lipid) [µg/mL]	solubility [1, 11] [µg/mL]	solubility [1, 12] [µg/mL]	solubility [1, 13] [µg/mL]	solubility [1, 14] [µg/mL]	solubility [1, 15] [µg/mL]	solubility [1, 16] [µg/mL]	solubility [1, 17] [µg/mL]	solubility [1, 18] [µg/mL]	solubility [1, 19] [µg/mL]	solubility [1, 20] [µg/mL]	solubility [1, 21] [µg/mL]	marginal increase in solubility [2] [%]	degradation [3, 22]	other results
N[C@@H](Cc1c[nH]c2ccc(O)cc12)C(=O)O [5-HTP, (2S)-2-amino-3-(5-hydroxy-1H-indol-3-yl)propanoic acid]	29400 (≈ 133 mM)	12400 (≈ 56.3 mM)	13500 (≈ 61.3 mM)	17000 (≈ 77.2 mM)	5100 (≈ 23.2 mM)	9500 (≈ 43.1 mM)	4800 (≈ 21.8 mM)	2300 (≈ 10.4 mM)	9400 (≈ 42.7 mM)	35400 (≈ 161 mM)	14500 (≈ 65.8 mM)	9000 (≈ 40.9 mM)	13700 (≈ 62.2 mM)	< 10000	< 10000	8400 (≈ 38.1 mM)	8900 (≈ 40.4 mM)	9300 (≈ 42.2 mM)	-20	about 15%	degradation ([3]; mix solution of 5-HTP and carbidopa, all stress conditions): mainly light and acidic stress influenced the degradation; degradation [3, 23]: not sensitive; degradation [3, 24]: about 15%; degradation [3, 25]: not sensitive; degradation [3, 26]: not sensitive; solubility ([4]; Water): 1 - 10^(1) mg/mL
C[C@@](Cc1ccc(O)c(O)c1)(NN)C(=O)O [Carbidopa, (2S)-3-(3,4-dihydroxyphenyl)-2-hydrazinyl-2-methylpropanoic acid]	11800 (≈ 52.2 mM)	12900 (≈ 57 mM)	2800 (≈ 12.4 mM)	3100 (≈ 13.7 mM)	70 (≈ 0.309 mM)	1500 (≈ 6.63 mM)	12800 (≈ 56.6 mM)	1500 (≈ 6.63 mM)	1400 (≈ 6.19 mM)	15000 (≈ 66.3 mM)	3100 (≈ 13.7 mM)	1400 (≈ 6.19 mM)	600 (≈ 2.65 mM)	< 10000	< 10000	1500 (≈ 6.63 mM)	2100 (≈ 9.28 mM)	4700 (≈ 20.8 mM)	-40	about 88%	degradation [3, 23]: more than 20%; degradation [3, 24]: about 30%; degradation [3, 25]: 90%; degradation [3, 26]: did not influence; stability in solution ([3]; stress studies, overall): very unstable in solution and is quickly degraded; solubility ([4]; 3N HCI): 100 - 1000 ^(3) mg/mL; solubility ([4]; Acetone): < 0.1 ^(3) mg/mL; solubility ([4]; Chloroform): < 0.1 ^(2) mg/mL; solubility ([4]; Ethanol): 0.1 - 1 ^(2) mg/mL; solubility ([4]; Ether): < 0.1 ^(3) mg/mL; solubility ([4]; Methanol): 1 - 10 ^(3) mg/mL; solubility ([4]; Methylene chloride): < 0.1 ^(3) mg/mL; solubility ([4]; Water): 1 - 10 ^(2) mg/mL
